According to patent US20250108032A1, “METHODS OF TREATING TYPE 1 DIABETES AND KIDNEY DISEASE” (LEXICON PHARMACEUTICALS, INC., priority 2023, published 2025):

Test system: patients with type 2 diabetes mellitus and CKD (eGFR 25 to 60 ml per minute per 1.73 m^2)
Type: in vivo
From the text: The cardiorenal protective properties of sotagliflozin in patients with type 2 diabetes informed research that led to the present invention. […] The primary end point was changed during the trial to the composite of the total number of deaths from cardiovascular causes, hospitalizations for heart failure, and urgent visits for heart failure.
Of 19.188 patients screened, 10,584 were enrolled, with 5,292 assigned to the sotagliflozin group and 5,292 assigned to the placebo group and followed for a median of 16 months. The rate of primary end-point events was 5.6 events per 100 patient-years in the sotagliflozin group and 7.5 events per 100 patient-years in the placebo group: hazard ratio, 0.74; 95% confidence interval (CI), 0.63 to 0.88; P<0.001. The rate of deaths from cardiovascular causes per 100 patient-years was 2.2 with sotagliflozin and 2.4 with placebo (hazard ratio, 0.90; 95% CI, 0.73 to 1.12; P=0.35). For the original coprimary end point of the first occurrence of death from cardiovascular causes, nonfatal myocardial infarction, or nonfatal stroke, the hazard ratio was 0.84 (95% CI, 0.72 to 0.99); for the original coprimary end point of the first occurrence of death from cardiovascular causes or hospitalization for heart failure, the hazard ratio was 0.77 (95% CI, 0.66 to 0.91). Diarrhea, genital mycotic infections and volume depletion were more common with sotagliflozin than with placebo.
Table 1 provides the number and type of cardiorenal events observed during the trial, wherein each of the sotagliflozin and placebo groups contained 5292 patients.

[1] = T2D and CKD, 5292 patients per group

What does the source list for CCOc1ccc(Cc2cc([C@@H]3O[C@H](SC)[C@@H](O)[C@H](O)[C@H]3O)ccc2Cl)cc1 [sotagliflozin, (2S,3R,4R,5S,6R)-2-(4-chloro-3-(4-ethoxybenzyl)phenyl)-6-(methylthio)tetrahydro-2H-pyran-3,4,5-triol]?
50% decline in eGFR (sustained or last value), n (%) [1]: 75 (1.4) n (%); Chronic dialysis or transplant, n (%) [1]: 15 (0.3) n (%); End-stage kidney disease, n (%) [1]: 50 (0.9) n (%); Renal death, n (%) [1]: 8 (0.2) n (%); eGFR <15 mL/min/m^2 (sustained or last value), n (%) [1]: 41 (0.8) n (%); First event in composite, n (%) (cardiorenal composite, T2D and CKD, 5292 patients per group, median follow-up 16 months): 239 (4.5) n (%); risk of cardiorenal endpoints (compared to placebo, FIG. 1): significantly reduced; rate of primary end-point events (composite of deaths from cardiovascular causes, hospitalizations for heart failure, urgent visits for heart failure, median 16 months): 5.6 events per 100 patient-years; Diarrhea, genital mycotic infections and volume depletion (human, in vivo): more common; rate of deaths from cardiovascular causes (median follow-up 16 months): 2.2 per 100 patient-years; 50% decline in eGFR (sustained or last value), HR (95% CI) (vs placebo): 0.60 (0.45, 0.81); End-stage kidney disease, HR (95% CI) (vs placebo): 0.63 (0.45, 0.91); Renal death, HR (95% CI) (vs placebo): 1.59 (0.52, 4.86); eGFR <15 mL/min/m^2 (sustained or last value), HR (95% CI) (vs placebo): 0.60 (0.41, 0.88); primary end point hazard ratio (vs placebo, 95% CI 0.63 to 0.88): 0.74; hazard ratio, original coprimary end point: first occurrence of death from cardiovascular causes or hospitalization for heart failure (vs placebo, 95% CI 0.66 to 0.91): 0.77; hazard ratio, original coprimary end point: first occurrence of death from cardiovascular causes, nonfatal myocardial infarction, or nonfatal stroke (vs placebo, 95% CI 0.72 to 0.99): 0.84; First event in composite, HR (95% CI) (vs placebo, T2D and CKD): 0.77 (0.65, 0.91)
